# Experimental data published in publication PMC3306499 (ACS Chemical Biology, 2012).
# Structures can show the parent of a compound that is named as a salt. Where two headings read alike, the source gives them in different places.
# Columns and labels:
# HIV-1 integrase = HIV-1 integrase (Human immunodeficiency virus type 1 group M subtype B, UniProt P04585); experiment: concerted HIV-1 integration assay; type: biochemical
# HIV-1 RNase H = HIV-1 RNase H (Human immunodeficiency virus type 1 group M subtype B, UniProt P04585); experiment: HIV-1 RNase H inhibition assay; type: biochemical
# human A3G (APOBEC3G) = human A3G (APOBEC3G) (Homo sapiens, UniProt Q9HC16); experiment: fluorescence-based ssDNA cytosine deaminase assay, A3G; type: biochemical
# human A3G (APOBEC3G), sequence (Q9HC16 whole entry): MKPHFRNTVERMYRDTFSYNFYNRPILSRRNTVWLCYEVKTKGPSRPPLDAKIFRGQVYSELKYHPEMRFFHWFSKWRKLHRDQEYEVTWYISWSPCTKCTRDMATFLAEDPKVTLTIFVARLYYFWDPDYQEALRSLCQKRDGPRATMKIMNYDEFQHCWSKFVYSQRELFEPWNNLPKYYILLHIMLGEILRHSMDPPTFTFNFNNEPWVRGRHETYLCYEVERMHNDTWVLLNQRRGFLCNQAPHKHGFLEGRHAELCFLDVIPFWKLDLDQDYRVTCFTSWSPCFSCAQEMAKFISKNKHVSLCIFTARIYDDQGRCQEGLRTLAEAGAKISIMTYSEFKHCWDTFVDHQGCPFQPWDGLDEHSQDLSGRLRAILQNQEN
# human A3A (APOBEC3A) = human A3A (APOBEC3A) (Homo sapiens, UniProt P31941); experiment: fluorescence-based ssDNA cytosine deaminase assay, A3A; type: biochemical
# human A3A (APOBEC3A), sequence (P31941 whole entry): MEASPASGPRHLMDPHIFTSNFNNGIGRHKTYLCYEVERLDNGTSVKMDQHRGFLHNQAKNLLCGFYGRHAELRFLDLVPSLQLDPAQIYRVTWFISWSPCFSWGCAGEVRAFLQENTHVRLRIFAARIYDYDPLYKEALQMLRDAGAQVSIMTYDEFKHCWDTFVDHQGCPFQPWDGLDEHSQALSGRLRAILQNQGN
# [1] = biological target: E. coli uracil DNA glycosylase (UDG) (Escherichia coli, UniProt P12295); experiment: UDG assay; type: biochemical
# E. coli uracil DNA glycosylase (UDG), sequence (P12295 whole entry): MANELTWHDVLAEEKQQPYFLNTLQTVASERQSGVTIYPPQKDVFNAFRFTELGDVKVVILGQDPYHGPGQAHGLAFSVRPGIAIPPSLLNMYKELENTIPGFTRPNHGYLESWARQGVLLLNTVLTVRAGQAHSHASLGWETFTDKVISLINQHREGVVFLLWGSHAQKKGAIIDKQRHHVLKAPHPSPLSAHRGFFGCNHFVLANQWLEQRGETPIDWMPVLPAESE
# HIV RNase H = conditions: read-out: IC50 Values RNase H, cited from earlier work
# A3G-ssDNA complex = A3G-ssDNA complex (Homo sapiens, UniProt Q9HC16); experiment: EMSA of A3G-ssDNA complex formation; type: binding; conditions: 0.64 μM A3G, 0.08 μM ssDNA, 50 μM compound, dose response 2, 5, 10 μM
# A3G-ssDNA complex, sequence (Q9HC16 whole entry, one chain of several): as the sequence (Q9HC16 whole entry) above
# [2] = cited from earlier work
# [3] = tested on: A3A-loop 6 (C321 loop of A3G swapped into A3A); experiment: deaminase assay with A3A-loop 6 swap mutant; type: biochemical, human; conditions: 50 μM compound
# [4] = read-out: IC50 Values RNase H, A3G inhibitors, this study
# [5] = read-out: IC50 Values A3G, dose response, purified full-length A3G-mycHis
# [6] = read-out: IC50 Values A3A, dose response, purified A3A-mycHis
# [7] = read-out: IC50 Values UDG, no deaminase, uracil ssDNA substrate
compound,measurement,setting,value
"Oc1cc2c(cc1O)[C@H]1c3ccccc3CN[C@@H]1CC2 (racemic) [MN8, Dihydrexidine hydrochloride]",IC50,HIV-1 integrase,> 25 µM
same,IC50,HIV-1 RNase H,> 25 µM
same,IC50,human A3G (APOBEC3G),0.59 µM
same,IC50,human A3A (APOBEC3A),> 200 µM
same,IC50,[1],> 200 µM
"NC1CCc2cc(O)c(O)cc2C1 (racemic) [MN13, (±)-2-Amino-6,7-dihydroxy-1,2,3,4-tetrahydronaphthalene hydrobromide]",IC50,HIV-1 RNase H; [4],> 25 µM
same,IC50,human A3G (APOBEC3G); [5],0.7 µM
same,IC50,human A3A (APOBEC3A); [6],> 200 µM
same,IC50,[1]; [7],> 200 µM
"Oc1cc2c(cc1O)C(c1ccccc1)CNCC2 (racemic) [MN15, (±)-SKF-38393 hydrochloride]",IC50,human A3G (APOBEC3G); [5],27 µM
same,IC50,human A3A (APOBEC3A); [6],> 200 µM
same,IC50,[1]; [7],> 200 µM
"NC(Cc1cc(O)c(O)cc1O)C(=O)O (racemic) [MN23, 6-Hydroxy-DL-DOPA]",inhibition of A3G catalytic activity (in words),human A3G (APOBEC3G),inhibit A3G catalytic activity
same,IC50,human A3G (APOBEC3G); [5],4 µM
same,inhibition of A3A (in words),human A3A (APOBEC3A),inhibit A3A
same,IC50,[1]; [7],> 200 µM
"CC(N)(Cc1ccc(O)c(O)c1)C(=O)O (racemic) [MN28, (±)–3-(3,4-Dihydroxyphenyl)-2-methyl-DL-alanine]",IC50,HIV-1 RNase H; [4],> 25 µM
same,IC50,human A3G (APOBEC3G); [5],13 µM
same,IC50,human A3A (APOBEC3A); [6],> 200 µM
same,IC50,[1]; [7],> 200 µM
"O=C(O)c1ccc(-c2cccc(/C=N/NC(=O)c3cc(O)c(O)c(O)c3)c2)cc1 [BHMP-07, reference compound]",IC50,HIV RNase H; published value,0.1 µM
same,IC50,human A3G (APOBEC3G); [5],13 µM
"O=C(/C=C/c1ccc(O)c(O)c1)OCCc1ccccc1 [CAPE, caffeic acid phenethyl ester, reference compound]",IC50,human A3G (APOBEC3G),> 100 µM
same,inhibition of A3G catalytic activity (in words),human A3G (APOBEC3G),no significant effect
same,inhibition of A3A (in words),human A3A (APOBEC3A),no significant effect
"O=C(/C=C/c1ccc(O)c(O)c1)O[C@@H]1C[C@](O)(C(=O)O)C[C@@H](O)[C@H]1O [Chlorogenic acid, reference compound]",IC50,human A3G (APOBEC3G),> 100 µM
same,inhibition of A3G catalytic activity (in words),human A3G (APOBEC3G),no effect
"O=C(NN=Cc1c(O)ccc2ccccc12)c1cc(O)c(O)c(O)c1 [KMMP-02 (THBNH), reference compound]",IC50,"HIV RNase H; ref M. Parniak, unpublished",0.2 µM
same,IC50,human A3G (APOBEC3G); [5],> 100 µM
"COc1ccc2ccccc2c1/C=N/NC(=O)c1ccc(O)c(O)c1 [KMMP-05 (DHBNH), reference compound]",IC50,HIV RNase H; published value,0.5 µM
same,IC50,human A3G (APOBEC3G); [5],> 100 µM
"O=C(/C=C/c1ccc(O)c(O)c1)O[C@@H](C(=O)O)[C@@H](OC(=O)/C=C/c1ccc(O)c(O)c1)C(=O)O [L-Chicoric Acid, reference compound]",inhibition of A3G catalytic activity (in words),human A3G (APOBEC3G),inhibited
same,IC50,human A3G (APOBEC3G); [5],2.8 µM
same,inhibition of A3A (in words),human A3A (APOBEC3A),inhibited
"O=C(O)[C@H](O)[C@@H](O)C(=O)O [L-Tartaric Acid, reference compound]",IC50,human A3G (APOBEC3G),> 100 µM
same,inhibition of A3G catalytic activity (in words),human A3G (APOBEC3G),no effect
"O=C(O)C1=CC(=C(c2ccc(O)c(C(=O)O)c2)c2ccc(O)c(C(=O)O)c2)C=CC1=O [MN1, Aurintricarboxylic acid]",IC50,human A3G (APOBEC3G),0.49 µM
same,IC50,[1],15 µM
same,inhibition of UDG activity (in words),[1],blocked UDG activity
"CN1CCc2cccc3c2[C@H]1Cc1ccc(O)c(O)c1-3 [MN2, R-(−)-Apomorphine hydrochloride hemihydrate]",IC50,HIV-1 integrase,> 25 µM
same,IC50,HIV-1 RNase H,> 25 µM
same,IC50,human A3G (APOBEC3G),1.3 µM
same,IC50,human A3A (APOBEC3A),> 200 µM
same,IC50,[1],> 200 µM
"CC(=O)NCCc1ccc(O)c(O)c1 [MN3, N-Acetyldopamine monohydrate]",IC50,human A3G (APOBEC3G); [5],0.45 µM
same,IC50,human A3A (APOBEC3A); [6],> 200 µM
"O=C1C=CC(=O)C=C1 [MN4, p-Benzoquinone]",IC50,human A3G (APOBEC3G); [5],0.17 µM
same,IC50,human A3A (APOBEC3A); [6],> 200 µM
"O=C(O)/C=C/c1ccc(O)c(O)c1 [MN5, Caffeic acid]",IC50,human A3G (APOBEC3G),85 µM
same,IC50,human A3A (APOBEC3A),> 200 µM
same,IC50,[1],> 200 µM
"O=C(O)c1cc[c]([Hg][Cl])cc1 [MN6, 4-Chloromercuribenzoic acid]",IC50,human A3G (APOBEC3G); [5],0.13 µM
same,IC50,human A3A (APOBEC3A); [6],0.26 µM
"CC(=O)OCC1=C(C(=O)O)N2C(=O)[C@@H](NC(=O)CSc3ccncc3)[C@H]2SC1 [MN7, Cephapirin sodium salt]",IC50,human A3G (APOBEC3G),7.5 µM
same,IC50,human A3A (APOBEC3A),12 µM
"C[C@@](Cc1ccc(O)c(O)c1)(NN)C(=O)O [MN9, S-(−)-Carbidopa]",IC50,human A3G (APOBEC3G),5.3 µM
same,IC50,human A3A (APOBEC3A),> 200 µM
"CN(N=O)c1cc(O)ccc1O [MN10, Dephostatin]",inhibition of A3G's ssDNA binding activity (A3G-ssDNA complex formation),A3G-ssDNA complex,only exceptions
same,IC50,human A3G (APOBEC3G),0.43 µM
same,stability,[2],too unstable for most biological applications
same,IC50,human A3A (APOBEC3A),150 µM
same,IC50,[1],> 200 µM
"O=C(O)Cc1ccc(O)c(O)c1 [MN12, 3,4-Dihydroxyphenylacetic acid]",IC50,human A3G (APOBEC3G),19 µM
same,IC50,human A3A (APOBEC3A),> 200 µM
same,IC50,[1],> 200 µM
"CCCN1CCc2cccc3c2[C@H]1Cc1ccc(O)c(O)c1-3 [MN14, R(−)-Propylnorapomorphine hydrochloride]",IC50,human A3G (APOBEC3G); [5],6.4 µM
same,IC50,human A3A (APOBEC3A); [6],> 200 µM
"CN1CCc2cc(O)cc3c2[C@H]1Cc1ccc(O)c(O)c1-3 [MN16, R(−)-2,10,11-Trihydroxyaporphine hydrobromide]",IC50,HIV-1 RNase H; [4],> 25 µM
same,IC50,human A3G (APOBEC3G); [5],1.7 µM
same,IC50,human A3A (APOBEC3A); [6],> 200 µM
same,IC50,[1]; [7],> 200 µM
"CCCN1CCc2cc(O)cc3c2[C@H]1Cc1ccc(O)c(O)c1-3 [MN17, R(−)-2,10,11-Trihydroxy-N-propylnoraporphine hydrobromide hydrate]",IC50,human A3G (APOBEC3G); [5],13 µM
same,IC50,human A3A (APOBEC3A); [6],> 200 µM
"Oc1ccc(O)cc1 [MN21, Hydroquinone]",IC50,human A3A (APOBEC3A),> 200 µM
"Oc1ccc(Cn2cc[nH]c2=S)cc1 [MN22, 1-(4-Hydroxybenzyl)imidazole-2-thio]",IC50,human A3A (APOBEC3A); [6],> 200 µM
same,IC50,[1]; [7],> 200 µM
"O=c1cc(O)cc(/C=C/c2ccc(O)c(O)c2)o1 [MN24, Hispidin]",IC50,HIV-1 integrase,> 25 µM
same,inhibitory activity against RNase H (in words),HIV-1 RNase H,modest micromolar inhibitory activity
same,IC50,human A3G (APOBEC3G),2 µM
same,IC50,human A3A (APOBEC3A),> 200 µM
same,IC50,[1],> 200 µM
"CN[C@@H](C)[C@H](O)c1ccccc1 [MN25, (1R,2S)-(−)-Ephedrine]",IC50,human A3G (APOBEC3G); [5],1.3 µM
same,IC50,human A3A (APOBEC3A); [6],54 µM
"OC[C@H]1O[C@H]([S-])[C@H](O)[C@@H](O)[C@@H]1O.[Au+] [MN26, Aurothioglucose hydrate]",IC50,human A3G (APOBEC3G); [5],0.36 µM
same,IC50,human A3A (APOBEC3A); [6],> 200 µM
same,IC50,[1]; [7],> 200 µM
"O=c1c(O)c(-c2cc(O)c(O)c(O)c2)oc2cc(O)cc(O)c12 [MN27, Myricetin]",IC50,human A3G (APOBEC3G),3.4 µM
same,inhibition of A3G catalytic activity (in words),human A3G (APOBEC3G),inhibit A3G catalytic activity
same,inhibition of A3A (in words),human A3A (APOBEC3A),inhibit A3A
same,IC50,[1],> 200 µM
"CC(Cc1ccc(O)c(O)c1)C(C)Cc1ccc(O)c(O)c1 (stereo not drawn) [MN31, Nordihydroguaiaretic acid]",IC50,human A3G (APOBEC3G); [5],8.8 µM
same,IC50,human A3A (APOBEC3A); [6],> 200 µM
"Oc1cc(O)cc(/C=C/c2ccc(O)c(O)c2)c1 [MN32, Piceatannol]",IC50,HIV-1 integrase,> 25 µM
same,IC50,HIV-1 RNase H,0.39 µM
same,IC50,human A3G (APOBEC3G),1.8 µM
same,inhibition of A3A-loop 6 deaminase activity,[3],very little inhibition
same,IC50,human A3A (APOBEC3A),200 µM
same,IC50,[1],> 200 µM
"Cc1nc(N=Nc2cc(S(=O)(=O)O)c3cc([N+](=O)[O-])cc(S(=O)(=O)O)c3c2)c(COP(=O)(O)O)c(C=O)c1O [MN33, PPNDS tetrasodium]",IC50,human A3G (APOBEC3G); [5],5.6 µM
same,IC50,human A3A (APOBEC3A); [6],3.3 µM
"CN=c1nc(-c2ccccc2)n(-c2ccccc2)s1 [MN34, SCH-202676 hydrobromide]",IC50,human A3G (APOBEC3G); [5],29 µM
same,IC50,human A3A (APOBEC3A); [6],310 µM
same,IC50,[1]; [7],> 200 µM
"Br.Oc1ccc(C2CNCc3sccc32)cc1O (stereo not drawn) [MN35, SKF-89626 hydrobromide]",inhibitory activity against RNase H (in words),HIV-1 RNase H,modest micromolar inhibitory activity
same,IC50,HIV-1 RNase H; [4],2.2 µM
same,inhibition of A3G's ssDNA binding activity (A3G-ssDNA complex formation),A3G-ssDNA complex,only exceptions
same,IC50,human A3G (APOBEC3G); [5],1.3 µM
same,IC50,human A3A (APOBEC3A); [6],> 200 µM
same,IC50,[1]; [7],> 200 µM
"O=C(O)[C@]1(O)C[C@@H](O)[C@@H](O)[C@H](O)C1 [Quinic Acid, reference compound]",IC50,human A3G (APOBEC3G),> 100 µM
same,inhibition of A3G catalytic activity (in words),human A3G (APOBEC3G),no effect
"CC(C)c1ccc(O)c(=O)c(O)c1 [β-Thujaplicinol, reference compound]",IC50,HIV RNase H; published value,0.21 µM
same,IC50,human A3G (APOBEC3G),> 100 µM
Manicol [reference compound],IC50,HIV RNase H; published value,0.6 µM
same,IC50,human A3G (APOBEC3G); [5],> 100 µM
R(−)-N-Allylnorapomorphine hydrobromide [MN11],IC50,human A3G (APOBEC3G); [5],2.9 µM
same,IC50,human A3A (APOBEC3A); [6],> 200 µM
